Values after ≈ are worked out from the molar mass of the structure shown. Like-named read-outs stand apart in the source and are kept apart here.
Key:
strain hCg-6 = assay: Antibiotic sensitivity of the strain hCg-6; assay type: cell-based, Pseudoalteromonas hCg-6; parameters: key to Sensitive to: +: Positive; −: negative; f: slight reaction
[1] = system: E. coli β résistante P7 (clinical strain); assay: MIC in liquid medium; assay type: cell-based; details: 24 h
Method: (§1) The minimum inhibitory concentration (MIC) of the compounds nos. 1, 2, 3, 5, 7 and 8 was evaluated in a liquid medium following the procedure of Wiegand, Hilpert, and Hancock 2008. The spectrum of the target bacteria was extended to certain human pathogens such as the bacteria Salmonella enterica, a clinical strain of Escherichia coli having a beta-3-lactamase activity with an extended spectrum and Pseudomonas aeruginosa. After 24 h of incubation at an optimum temperature, the MICs are evaluated visually.

[2] = system: Pseudomonas aeruginosa ATCC 27853; assay: MIC in liquid medium; assay type: cell-based; details: 24 h
Method: as §1

A. caviae CIP 7616 = assay: MIC in liquid medium; assay type: cell-based; details: 24 h
Method: as §1

V. splendidus LGP 32 = assay: MIC in liquid medium; assay type: cell-based; details: 24 h
Method: as §1

E. coli SBS363 = assay: MIC in liquid medium; assay type: cell-based; details: 24 h
Method: as §1

V. harveyi ORM4 = assay: MIC in liquid medium; assay type: cell-based; details: 24 h
Method: as §1

S. enterica CIP 8297 = assay: MIC in liquid medium; assay type: cell-based; details: 24 h
Method: as §1

E. coli ML35 = assay: MIC in liquid medium; assay type: cell-based; details: 24 h
Method: as §1

Y. ruckeri ATCC 29473 = assay: MIC in liquid medium; assay type: cell-based; details: 24 h
Method: as §1

A. hydrophila CIP 7614 = assay: MIC in liquid medium; assay type: cell-based; details: 24 h
Method: as §1

[3] = system: collection of strains of Vibrio splendidus isolated from oysters; assay: MIC in liquid medium on a collection of Vibrio splendidus strains isolated from oysters; assay type: cell-based; details: collection of V. splendidus strains
Method: The cyclolipopeptide no. 2 was tested on a collection of strains of Vibrio splendidus isolated from oysters. It has minimum inhibitory concentrations from 1.56 to 50 μM. The MICs were defined in a liquid medium by using the procedure of Wiegand, Hilpert, and Hancock 2008.

Row | Compound | resistance/sensitivity of the strain hCg-6 (strain hCg-6) | MIC (V. splendidus LGP 32) | MIC (E. coli SBS363) | MIC (S. enterica CIP 8297) | MIC (E. coli ML35) | MIC (Y. ruckeri ATCC 29473) | other results
1 | gentamycin | sensitive |  |  |  |  |  | 
2 | Polymyxin B [reference compound] |  | 1.6 µM | 0.2 µM | 0.8 µM | 3.1 µM | 0.4 µM | MIC [1]: 1.6 µM; MIC [2]: 1.6 µM; MIC (A. caviae CIP 7616): 3.1 µM; MIC (V. harveyi ORM4): 25 µM; MIC (A. hydrophila CIP 7614): 0.8 µM
3 | CC=C1NC(=O)C(NC(=O)CCCCCCCC)C(O)CNC(=O)C(C(O)CN)NC(=O)C(C(O)CN)NC(=O)C(CCCNC(=N)N)NC(=O)C(CC(C)CC)NC(=O)C(CCN)NC1=O (stereo not shown) [cyclolipopeptide 5] |  | 6.3 µM (≈ 6.02 µg/mL) | 25 µM (≈ 23.9 µg/mL) | 6.3 µM (≈ 6.02 µg/mL) | 50 µM (≈ 47.8 µg/mL) | 6.3 µM (≈ 6.02 µg/mL) | MIC (V. harveyi ORM4): 6.3 µM (≈ 6.02 µg/mL); MIC (A. hydrophila CIP 7614): 25 µM (≈ 23.9 µg/mL)
4 | CC=C1NC(=O)C(NC(=O)CC(O)CCCCCCC)C(O)CNC(=O)C(C(O)CN)NC(=O)C(C(O)CN)NC(=O)C(CCCNC(=N)N)NC(=O)C(CC(C)CC)NC(=O)C(CCN)NC1=O (stereo not shown) [cyclolipopeptide 2] |  | 4.4 µM (≈ 4.33 µg/mL) | 0.1 µM (≈ 0.0985 µg/mL) | 1.4 µM (≈ 1.38 µg/mL) | 35 µM (≈ 34.5 µg/mL) | 1.1 µM (≈ 1.08 µg/mL) | minimum inhibitory concentrations [3]: 1.56 to 50 µM; MIC [1]: 8.8 µM (≈ 8.67 µg/mL); MIC [2]: 35.2 µM (≈ 34.7 µg/mL); MIC (A. caviae CIP 7616): 17.6 µM (≈ 17.3 µg/mL)
5 | polymyxin |  |  |  |  |  |  | resistance/sensitivity of the strain hCg-6 (strain hCg-6; 50 μg): resistant; Sensitive to (strain hCg-6; 300 ED): −
6 | CCN1CCN(c2cc3c(cc2F)c(=O)c(C(=O)O)cn3C2CC2)CC1 [enrofloxacin] | sensitive |  |  |  |  |  | 
7 | CCn1cc(C(=O)O)c(=O)c2cc3c(cc21)OCO3 [oxolinic acid] | sensitive |  |  |  |  |  | 
8 | CO/N=C(\C(=O)N[C@@H]1C(=O)N2C(C(=O)[O-])=C(C[n+]3cccc4c3CCCC4)CS[C@H]12)c1csc(N)n1 [cefquinom] | sensitive |  |  |  |  |  | 
9 | CC1=C(C(=O)O)N2C(=O)[C@@H](NC(=O)[C@H](N)c3ccccc3)[C@H]2SC1 [cephalexin] | resistant |  |  |  |  |  | 
10 | CC1(C)S[C@@H]2[C@H](NC(=O)[C@H](N)c3ccc(O)cc3)C(=O)N2[C@H]1C(=O)O [amoxicillin] | sensitive |  |  |  |  |  | 
11 | CC=C1NC(=O)C(NC(=O)CCCCCCC)C(O)CNC(=O)C(C(O)CN)NC(=O)C(C(O)CN)NC(=O)C(CCCNC(=N)N)NC(=O)C(CC(C)CC)NC(=O)C(CCN)NC1=O (stereo not shown) [cyclolipopeptide 3] |  | 50 µM (≈ 47.1 µg/mL) | 50 µM (≈ 47.1 µg/mL) | 12.5 µM (≈ 11.8 µg/mL) | 100 µM (≈ 94.1 µg/mL) | 50 µM (≈ 47.1 µg/mL) | MIC (V. harveyi ORM4): 50 µM (≈ 47.1 µg/mL)
